Experimental data reported in US6500824B1, “Kappa (OP2) opioid receptor antagonists” (Regents of the University of Minnesota, priority 1998, dated 2002).
Marks after values point to notes of the source that are not given here.

Columns and labels:
[1] = biological target: T1, kappa (OP2) opioid receptor (Cavia porcellus, UniProt P41144); test: Guinea pig ileal longitudinal muscle (GPI) smooth muscle assay, antagonism of ethylketazocine (EKC); assay type: cell-based
T1 construct: a strip of longitudinal muscle with the myenteric plexus attached was prepared; from tissue; host or cells: guinea pig ileal longitudinal muscle with myenteric plexus
Experimental: (§1) 1. Guinea Pig Ileal Longitudinal Muscle (GPI). Ilea from guinea pigs were taken approximately 10 cm from the ileocecal junction, and a strip of longitudinal muscle with the myenteric plexus attached was prepared by the method of H. B. Rang et al., Brit. J Pharmacol., 1964, 22, 356. A 1 cm portion of this strip was then mounted between two platinum electrodes placed in a 10 ml organ bath and connected to an isometric transducer, contractions were recorded on a polygraph. Contractions of the ileal strip were initiated by supramaximal rectangular pulses in all preparations (80 V of 0.5 ms duration at a frequency of 0.1 Hz). Krebs bicarbonate solution containing […] chloropheniramine maleate was the bathing solution and was continuously bubbled with 95% O2 and 5% CO2. The organ bath was maintained at 36-37° C. The longitudinal strip was allowed to equilibrate with continuous stimulation for a minimum of 90 min. Cumulative concentration-response curves were determined after drugs were added to the bath in preselected amounts and washed out with buffer after noting their maximum effects.
(§2) The standard agonists employed were [D-Ala^2, D-Leu^5]enkephalin (DADLE) (D), morphine (M) and ethylketazocine (EKC); these are selective for delta (D), mu (M) and kappa (EKC) opioid receptors, respectively. Concentration-response curves were obtained in the absence (control) and the presence of the antagonist and were determined as IC50 values. The IC50 ratio represents the IC50 in the presence of the antagonist divided by the control IC50 value in the same tissue. A concentration independent value of antagonist potency is calculated from the equation, Ke=[antagonist]/(IC50 ratio-1).

μ(OP3) opioid receptor = test: Guinea pig ileal longitudinal muscle (GPI) smooth muscle assay, antagonism of morphine; assay type: cell-based; settings: agonist morphine, antagonist concentration 100 nM
Experimental: as §1, §2

δ(OP1) opioid receptor = biological target: T2, δ(OP1) opioid receptor (Mus musculus, UniProt P32300); test: Mouse vas deferens (MVD) smooth muscle assay, antagonism of DADLE; assay type: cell-based
T2 construct: Both vasa deferentia were dissected out of mice and mounted singly; from tissue; host or cells: mouse vas deferens
Experimental: 2. Mouse Vas Deferens (MvD). This assay was performed according to the description by G. Henderson et al., Brit. J. Pharmacol., 1972, 46,764. Both vasa deferentia were dissected out of mice and mounted singly through two platinum electrodes in a 10 ml organ bath. The bath contained Krebs bicarbonate solution that was continuously bubbled with 95% O2 and 5% CO2. The organ bath was maintained at 37° C. The tissue was attached to an isometric transducer and stimulated transmurally with rectangular pulses ([…], 1 ms duration, supramaximal voltage). Drugs were added cumulatively to the bath in preselected amounts and washed out after noting their maximum effects.
as §2

mu opioid receptor = biological target: T3, mu opioid receptor (Mus musculus, UniProt P42866); test: Mouse tail flick assay, antagonism of morphine (μ) by ICV antagonist; assay type: in vivo; settings: antagonist ICV 50 pmol, agonist morphine
T3 construct: from tissue; host or cells: living mouse (ICV dosing)

delta opioid receptor = biological target: T4, delta opioid receptor (Mus musculus, UniProt P32300); test: Mouse tail flick assay, antagonism of DSLET (δ) by ICV antagonist; assay type: in vivo; settings: antagonist ICV 50 pmol, agonist DSLET
T4 construct: from tissue; host or cells: living mouse (ICV dosing)

kappa opioid receptor [2] = biological target: T5, kappa opioid receptor (Cavia porcellus, UniProt P41144); test: GPI preparation, kappa antagonist potency against U-50488H; assay type: cell-based, guinea pig
T5 construct: a strip of longitudinal muscle with the myenteric plexus attached was prepared; from tissue; host or cells: guinea pig ileal longitudinal muscle with myenteric plexus
Experimental: as §1

wt κ receptor = biological target: T6, wt κ receptor (Rattus norvegicus, UniProt P34975); test: Competition binding with [3H]diprenorphine, whole cell binding, COS-7 cells, wt κ
T6 construct: expressed in transfected cells; host or cells: COS-7 (per the earlier reading)
Description: (§3) The effects of mutational exchange of Glu297 in the κ receptor and Lys303 in the μ receptor on the binding affinity of representative compounds of the invention were examined using techniques known in the art.

κ[E297K] receptor = biological target: T7, κ[E297K] receptor (Rattus norvegicus, UniProt P34975, E297K); test: Competition binding with [3H]diprenorphine, whole cell binding, COS-7 cells, κ[E297K]
T7 construct: expressed in transfected cells; host or cells: COS-7 (per the earlier reading)
Description: as §3

wt μ receptor [3] = biological target: T8, wt μ receptor (Rattus norvegicus, UniProt P33535); test: Competition binding with [3H]diprenorphine, whole cell binding, COS-7 cells, wt μ; settings: [3H]diprenorphine competition; COS-7 whole cell binding; read-out: Ki ± SEM, wt μ
T8 construct: expressed in transfected cells; host or cells: COS-7 (per the earlier reading)
Description: as §3

wt μ receptor [4] = test: as above; set-up: species or system rat; settings: wt μ
Description: as §3

μ[K303E] receptor = biological target: T9, μ[K303E] receptor (Rattus norvegicus, UniProt P33535, K303E); test: Competition binding with [3H]diprenorphine, whole cell binding, COS-7 cells, μ[K303E]
T9 construct: expressed in transfected cells; host or cells: COS-7 (per the earlier reading)
Description: as §3

[5] = Butorphanol-induced feeding; assay type: in vivo; settings: FIG. 3
Description: (§4) The ability of a compound to decrease butorphanol-, DAMGO-, U50,488-, 24-hour deprivation-, and Neuropeptide Y-induced feeding can be determined using models known in the art. See for example, A. S. Levine et al., Brain Research, 1998, 534, 60-64; and D. C. Jewett, et al., 1998, Society for Neuroscience Abstracts, 1, Abstract #276.10, 705.

DAMGO-induced feeding = assay type: in vivo; settings: FIG. 4
Description: as §4

U50,488-induced feeding = assay type: in vivo; settings: FIG. 5
Description: as §4

[6] = 24-hour deprivation-induced feeding; assay type: in vivo; settings: FIG. 6
Description: as §4

[7] = Neuropeptide Y-induced feeding; assay type: in vivo; settings: FIG. 7
Description: as §4

kappa opioid receptor [8] = biological target: T10, kappa opioid receptor (Mus musculus, UniProt P33534); test: Mouse abdominal stretch assay, antagonism of U-50488H antinociception by SC antagonist; assay type: in vivo; set-up: from tissue; host or cells: living mouse (SC dosing)
kappa opioid receptor [9] = biological target: T10, kappa opioid receptor; test: Mouse tail flick assay, antagonism of U-50488H (κ) by ICV antagonist; assay type: in vivo; set-up: from tissue; host or cells: living mouse (ICV or SC dosing)
[10] = in vitro smooth muscle Ke, relative to nor-BNI

Structure (SMILES): N=C(N)Nc1ccc2[nH]c3c(c2c1)C[C@@]1(O)[C@H]2Cc4ccc(O)c5c4[C@@]1(CCN2CC1CC1)[C@H]3O5.O.O.O=C(O)C(F)(F)F.O=C(O)C(F)(F)F [Compound 15, 5′-Guanidinyl-17-cyclopropylmethyl-6,7-didehydro-4,5-α-epoxy-3.14-dihydroxyindolo[2′,3′:6,7]morphinan Ditrifluoroacetate Dihydrate]
- Antagonist Potency Ke κ(OP2) EKC ([1]; GPI, agonist EKC, antagonist concentration 20 nM (*)): 0.144* nM
- selectivity ratio κ/δ, fold greater than that of nor-BNI [1, 10]: 42 fold
- selectivity ratio κ/μ, fold greater than that of nor-BNI [1, 10]: 9 fold
- kappa opioid receptor selectivity (in words) ([1]; in vitro, versus morphine and DADLE antagonism, Ditrifluoroacetate Dihydrate): potent and highly selective
- Antagonist Potency Ke μ(OP3) Morphine (μ(OP3) opioid receptor): 30.00 nM
- Antagonist Potency Ke δ(OP1) DADLE (δ(OP1) opioid receptor; agonist DADLE, antagonist concentration 100 nM): 115 nM
- delta antagonist activity of NTI associated with the compound (in words) (δ(OP1) opioid receptor; in vitro): little, if any
- ED50 Ratio (limits), Morphine (μ) (mu opioid receptor): 0.8 (0.5-1.2)
- ED50 Ratio (limits), DSLET (δ) (delta opioid receptor): 1.4 (1.0-2.2)
- Kb (kappa opioid receptor [2]; GPI, agonist U-50488H, read-out: Ke): 0.041 nM
- potency relative to nor-BNI, antagonism of U-50488H (kappa opioid receptor [2]; GPI, agonist U-50488H, relative to nor-BNI): 5 fold
- Selectivity Ratio κ/δ (kappa opioid receptor [2]; δ agonist [D-Ala2, D-Leu5]enkephalin, κ agonist U-50488H): 2797
- Selectivity Ratio κ/μ (kappa opioid receptor [2]; μ agonist morphine, κ agonist U-50488H): 728
- Ki (wt κ receptor; [3H]diprenorphine competition, COS-7 whole cell binding, read-out: Ki ± SEM, wt κ): 0.09 ± 0.01 nM
- Fana = Ki(analog)/Ki(nor-BNI on the wt κ receptor) (wt κ receptor; wt κ): 0.75
- Ki (κ[E297K] receptor; [3H]diprenorphine competition, COS-7 whole cell binding, read-out: Ki ± SEM, κ[E297K]): 12.9 ± 0.48 nM
- Fmut = mutational factor, Ki(mutant receptor)/Ki(wt κ receptor) (κ[E297K] receptor; κ[E297K]): 143
- Ki (wt μ receptor [3]): 9.23 ± 1.39 nM
- Fmut = mutational factor, Ki(mutant receptor)/Ki(wt κ receptor) (wt μ receptor [4]): 103
- Ki (μ[K303E] receptor; [3H]diprenorphine competition, COS-7 whole cell binding, read-out: Ki ± SEM, μ[K303E]): 0.06 ± 0.02 nM
- Fmut = mutational factor, Ki(mutant receptor)/Ki(wt κ receptor) (μ[K303E] receptor; μ[K303E]): 0.67
- effect on Butorphanol-induced feeding [5]: does not decreases
- effect on DAMGO-induced feeding (DAMGO-induced feeding): decreases
- effect on U50,488-induced feeding (U50,488-induced feeding): decreases
- effect on 24-hour deprivation-induced feeding [6]: decreases
- effect on Neuropeptide Y-induced feeding [7]: does not decreases
- potency relative to nor-BNI, SC-administered (kappa opioid receptor [8]; SC, relative to nor-BNI): greater than 50 times
- ED50 Ratio (limits), U-50488H antinociception (kappa opioid receptor [8]; antagonist SC 0.05 μmol kg−1, U-50488H SC): 3.0 (1.9-5.0)
- ED50 Ratio (limits), U-50488H antinociception (kappa opioid receptor [8]; antagonist SC 2.0 μmol kg−1, U-50488H SC): 3.8 (2.5-6.3)
- in vivo kappa selectivity (in words) (kappa opioid receptor [9]; in vivo studies, Tables 2 and 3): selective κ-antagonist
- ED50 Ratio (limits), U-50488H (κ) (kappa opioid receptor [9]; mouse tail flick, antagonist ICV 50 pmol, agonist U-50488H): 4.5 (3.4-6.3)
